Assays:
Kasumi-1 cells = test: CFU experiments, off and on stroma; type: cell-based; conditions: 10^−6 M ATRA, IRX5183, or 10^−7 M AM80
Description: (§1) Data across three independent experiments.

NB4 cells = test: CFU experiments, off and on stroma; type: cell-based; conditions: 10^−7 M ATRA, IRX5183, or 10^−8 M AM80
Description: as §1

OCI-AML3 cells = test: CFU experiments, off and on stroma; type: cell-based; conditions: 10^−6 M ATRA, IRX5183, or 10^−7 M AM80
Description: as §1

H929 cells = test: mobilization experiment, BTZ after separation from BM stroma; type: cell-based, human
Protocol: FIG. 5 depicts clonogenic recovery of H929 cells treated with BTZ (2.5 nM). MM cells were incubated for 5 days in the absence (Liquid) or presence of BM mesenchymal cells (Stroma), with or without R115 (1 μM). Following this preincubation, H929 cells were separated from BM stroma, cultured in fresh media for 0 to 48 hours, and then treated with BTZ (2.5 nM) for 48 hours. Clonogenic recovery was normalized to each condition in the absence of BTZ.
Mobilization experiments. MM cells were separated from BM stromal cells by gently pipetting several times around the well. Detached cells were centrifuged, resuspended in fresh media, and incubated in a 24-well plate for 1 hr at 37° C. During this short incubation period, contaminating stromal cells attached to the well, while MM cells remained in suspension. MM cells were then recovered by gently pipetting. This protocol was used for qRT-PCR and CFU coculture experiments. […]
Clonogenic assays. […] Cells were plated in triplicate in 35-mm culture dishes, incubated at 37° C., and scored for the presence of colonies 14 days later.
Strategies to overcome microenvironment-dependent chemoprotection have focused on mobilization of cancer cells from the BM niche into the peripheral circulation. It was analyzed whether the change in phenotype and subsequent BTZ resistance of MM cells were lost upon separation from the BM stroma, a process that mimics mobilization. […]

[1] = system: H929 cells and primary CD138+ MM cells; test: clonogenic or cellular recovery of MM cells after BTZ treatment; type: cell-based, human; conditions: for sensitivity of MM cells to BTZ: BTZ 2.5 nM for 48 hours
Protocol: FIG. 4A-B depicts the clonogenic recovery (CFU) of H929 cells (FIG. 4A) or cellular recovery of primary CD138+ MM cells from 3 different patient samples (FIG. 4B). MM cells were treated with bortezomib (BTZ; 2.5 nM) for 48 hours after being incubated for 5 days either in the absence of stroma (Liquid), with or without the pan-RAR inhibitor AGN (1 μM), or in the presence of BM mesenchymal cells (Stroma), with or without the CYP26 inhibitor R115 (1 μM) or the CYP26-resistant retinoid IRX (1 μM). Clonogenic or cellular recovery was normalized to each condition in the absence of BTZ.
(§2) Coculture experiments. 24-well plates were coated with 0.1% gelatin in PBS for 30 min at 37° C. The gelatin solution was removed, and the stromal cells were cultured overnight at a density of 5×10^4 cells/well to obtain a confluent monolayer. At that time, MM cell lines or primary MM cells (1×10^5 in 2 ml) were added to the stroma cultures. The stroma cocultures were incubated at 37° C. in RPMI containing 10% FCS, L-glutamine, and P/S, with or without AGN194310 (1 μM for 5 days), R115866 (1 μM for 5 days), IRX5183 (1 μM for 5 days), or BTZ (2.5 nM for 48 hr).
Clonogenic assays. After treatment, MM cells were collected, washed with PBS, and plated at a density of 5,000 cells/ml in 1 ml of 1.32% methylcellulose supplemented with 30% FBS, 10% BSA, L-glutamine, P/S, and 0.1 mM β-ME. Cells were plated in triplicate in 35-mm culture dishes, incubated at 37° C., and scored for the presence of colonies 14 days later.
A RA-low microenvironment induces BTZ resistance. To determine whether decreased retinoid signaling contributes to BTZ resistance within the BM niche, MM cell lines and MM CD138+ primary cells were incubated with BM stroma for 5 days, followed by BTZ treatment.

H929 Luc+ cells = test: systemic MM xenograft, bioluminescence; type: in vivo, mouse; conditions: monotherapy, 4 weeks; BTZ 0.5 mg/kg i.p. twice weekly, IRX 10 mg/kg once daily
Protocol: FIG. 6 depicts bioluminescent images of systemic MM xenografts. Following engraftment of H929 Luc+ cells, mice were treated with IRX (n=4), BTZ (n=5), or a combination of both (n=5) for 4 weeks. Data represent the mean±SEM of the fold change in bioluminescence (photons/second) from day 0.
For the systemic MM model, 2×10^6 Luc+/GFP+ H929 cells were injected via the tail vein into 16-week-old male NSG mice. After engraftment, as determined by an exponential increase in bioluminescence, mice were treated with BTZ (0.5 mg/kg i.p.) twice weekly and with IRX (10 mg/kg) once daily. Tumor burden was assessed by bioluminescence, as above.
To test whether retinoids can enhance BTZ activity in MM, a systemic MM xenograft was developed by injecting 2×10^6 H929 luciferase+ (Luc+) cells via the tail vein of non-obese, diabetic, severe combined immunodeficiency IL-2 receptor y-KO (NSG) mice. The animals were randomized to receive IRX, BTZ, or a combination of both, and disease burden was followed weekly by bioluminescence imaging (FIG. 6).

[2] = system: H929 Luc+ cells with WT or Smo-KO stroma; test: subcutaneous xenograft model of MM-niche interactions, bioluminescence; type: in vivo, mouse; conditions: BTZ 0.5 mg/kg i.p. twice weekly
Protocol: FIG. 9 depicts bioluminescent images of mice showing tumor burden during 4 weeks of treatment with IRX (10 mg/kg), BTZ (0.5 mg/kg), or the combination. Anterior tumors consisted of a combination of MM.1S luciferase^+ cells and Smo^FI/FI BM stroma cells transduced with a control vector (WT BM stroma). Posterior tumors consisted of a combination of MM.1S luciferase^+ cells and Smo^FI/FI BM stroma cells transduced with Cre-recombinase (Smo KO BM stroma).
FIG. 10 depicts the fold change in bioluminescence (photons/second) of tumors during 4 weeks of treatment. The change in bioluminescence for each tumor […].
Mouse xenografts. 1×10^6 H929 Luc+ cells and 1×10^6 mouse BM stromal cells were resuspended in 100 μl […]®, diluted with RPMI (1:1), and injected subcutaneously into 16-week-old male NSG mice. After 4 days, treatment with BTZ (0.5 mg/kg i.p. twice weekly) and IRX (10 mg/kg i.p. daily) was initiated. Tumor burden was assessed by bioluminescence using the In Vivo Imaging System (PerkinElmer). For imaging, mice were exposed to 120 mg/kg D-luciferin via intraperitoneal injection […] before imaging and were anesthetized using isoflurane. Images were analyzed with Living Image Software, version 2.5 (PerkinElmer), and data were quantified as photons/second.
To study to what extent an RA-low environment created by the BM stroma and enhanced by MM cells via paracrine Hedgehog signaling contributes to BTZ resistance, a xenograft model of MM-niche interactions was developed. Each mouse carried 2 subcutaneous tumors consisting of H929 Luc+ cells and either WT (anterior tumors) or Smo-KO stroma (posterior tumors). Mice were treated with IRX (10 mg/kg i.p. daily), BTZ (0.5 mg/kg i.p. twice weekly), or a combination of both. The growth of tumors bearing WT or Smo-KO stroma was not different in untreated or IRX-treated groups (FIGS. 9 and 10). […] While some tumors in the treatment group receiving combined IRX and BTZ appeared to have regressed completely, even after anatomical study, this was not the case for all the mice in this group.

[3] = system: H929 cells and CD138+ primary MM cells; test: qRT-PCR of B cell and PC markers in MM cells, liquid or BM stroma co-culture; type: cell-based, human
Protocol: FIG. 3A-H depicts the relative concentration of plasma markers BCL6 (FIG. 3A and E), BLIMP-1 (FIG. 3B and F), XBPS-1 (FIG. 3C and G), and CHOP (FIG. 3D and H) in multiple myeloma (MM) cell lines H929 (FIG. 3A-D) or CD138+ MM cells from three different patient samples (FIG. 3E-H) incubated for 5 days either in the absence of stroma (Liquid), with or without AGN (RA receptor antagonist AGN194310, 1 μM), or co-cultured with BM mesenchymal cells (Stroma), with or without R115 (CYP26 inhibitor R115866, 1 μM) or IRX (CYP26-resistant retinoid IRX5183, 1 μM). Expression in untreated liquid conditions was set at 1. Data are representative of 3 independent experiments with similar results and represent the mean ±SEM. *P≤0.05 and **P≤0.01, by repeated-measures 1-way ANOVA for determination of statistical significance between groups; P values were corrected for multiple comparisons using Dunnett's test. Ctrl, control; max, maximum.
as §2
(§3) qRT-PCR. Total RNA was extracted using the RNeasy Mini Kit (QIAGEN) according to the manufacturer's instructions. cDNA was synthesized by reverse transcription using the iScript cDNA Synthesis Kit (Bio-Rad). qRT-PCR was performed with iTaq SYBR Green Supermix (Bio-Rad) using sequence specific primers. Gene expression was normalized to GAPDH, and relative quantification was calculated using ΔΔCt. All experiments were performed in duplicate and run on the Bio-Rad CFX96 machine.
The BM microenvironment (also called “niche”) limits PC differentiation by modulating retinoid signaling. A population of MM progenitors, phenotypically similar to B cells, is intrinsically resistant to BTZ and contributes to MRD and relapse. To investigate whether the BM niche plays a role in determining the phenotype of MM cells, the mRNA expression of B cell and PC markers in MM H929 cell lines (FIG. 3A-D) and MM CD138+ primary cells (FIG. 3E-H) was analyzed following co-culture with mouse BM stroma using human-specific primers. […] In contrast, co-culture of MM cells with BM stroma decreased the mRNA expression of B lymphocyte-induced maturation protein 1 (BLIMP1) and spliced X box-binding protein 1 (XBP1s) (FIG. 3B, C, F, G), which are critical mediators of PC differentiation.
The BM niche regulates hematopoietic stem cell (HSC) differentiation by expressing the retinoid-inactivating enzyme CYP26. CYP26 enzymes were highly expressed in BM mesenchymal cells, while their expression was barely detectable in MM cells. Since retinoid signaling promotes PC differentiation and potentiates Ig secretion, it was determined whether stromal CYP26 is responsible for inducing a B cell phenotype in MM cells. To this end, co-culture conditions were treated with the CYP26 inhibitor R115866 (R115) or the CYP26-resistant RA receptor α-selective (RARα-selective) retinoid IRX5183 (IRX).

BM stromal cells = test: CYP26A1 expression in BM stromal cells exposed to soluble factors; type: cell-based; conditions: soluble factors tested
Protocol: as §3

Molecule: CC1=C(/C=C/C(C)=C/C=C/C(C)=C/C(=O)O)C(C)(C)CCC1 [ATRA, all-trans retinoic acid]
- clonogenic growth (CFU), differentiation and elimination of AML (Kasumi-1 cells): stroma blockage
- clonogenic growth (CFU), differentiation and elimination of AML (NB4 cells): stroma blockage
- clonogenic growth (CFU), differentiation and elimination of AML (OCI-AML3 cells): stroma blockage

Molecule: CC(C)C[C@H](NC(=O)[C@H](Cc1ccccc1)NC(=O)c1cnccn1)B(O)O [BTZ, bortezomib]
- BTZ resistance after separation from BM stroma (H929 cells; 5-day stroma co-culture, fresh media 0 to 48 hr, then BTZ 2.5 nM): remained partially resistant to BTZ for up to 48 hr following detachment from stroma
- sensitivity of MM cells to BTZ ([1]; absence of BM stroma (liquid)): highly sensitive to BTZ
- sensitivity of MM cells to BTZ ([1]; after 5 days incubation with BM stroma): induced BTZ resistance
- tumor burden (bioluminescence) (H929 Luc+ cells): decreased tumor growth compared with untreated controls
- tumor response (bioluminescence) ([2]; tumors carrying Smo-KO stroma): significant response
- tumor response (bioluminescence) ([2]; tumors with WT stroma): refractory to BTZ treatment

Molecule: CCC(CC)C(c1ccc(Nc2nc3ccccc3s2)cc1)n1cncn1 (stereo not drawn) [Compound R115866]
- development of BTZ-resistant phenotype (H929 cells; co-culture treated with 1 μM, then separation and BTZ): prevented the development of a BTZ-resistant phenotype
- effect on stroma-induced BTZ resistance ([1]; stroma co-culture, 1 μM for 5 days, then BTZ 2.5 nM): overcome
- expression of differentiation markers by qRT-PCR or flow cytometry ([3]; liquid conditions compared with BM stroma): did not significantly affect the expression of differentiation markers
- mRNA expression of B cell and PC markers (BCL6, BLIMP1, XBP1s, CHOP) ([3]; stroma co-cultures, 1 μM for 5 days): restored all markers to levels comparable to those of liquid control conditions

Molecule: IL-6: cytokine, soluble factor produced by MM cells
- expression of CYP26A1 on BM stromal cells (BM stromal cells): no significant effects

Molecule: TNF-α
- expression of CYP26A1 on BM stromal cells (BM stromal cells): no significant effects

Reference: patent US11786555B2, “RAR selective agonists in combination with immune modulators for cancer immunotherapy” (IO THERAPEUTICS, INC., priority 2017, dated 2023)
